In patent US20240350443A1, “COMPOSITION, FORMULATION, PREPARATION METHOD AND USE FOR GLUTATHIONE PRECURSOR” (priority 2021, published 2024):
Marks after values point to notes of the source that are not given here.

How the values were obtained:
Format in all cases: in vivo, Kunming mice
humoral immune function = test: Humoral immune function: antibody-producing cells and serum hemolysin level; details: mice; 500 mg/kg BW intragastric; x ± s, n = 10
Excerpt: (§1) In the experiment, the effect of the composition on the immune system of mice was researched from four aspects of cellular immune function, humoral immune function, monocyte-macrophage function and NK cell activity.
(§2) Test animals were as follows: male SPF-grade Kunming mice aged 4 weeks, with body weights of 18-22 g, available from Hubei Provincial Laboratory Animal Public Service Center, Hubei, China [certification No.: SCXK (E) 2020-0018].
(§3) The experimental method was as follows: 400 mice were randomly divided into 5 groups, with 80 mice in each group, and each group was subjected to 5 kinds of immunoassays including body weight and organ/body ratio measurement, cellular immune function measurement, humoral immune function measurement, monocyte-macrophage function measurement, and NK cell activity measurement. For each immunoassay, 80 mice were tested and divided into 8 groups, namely a negative control group and experimental groups 1-7, with 10 mice in each group; distilled water was given to the negative control group, corresponding test substances (the dose of acetylcysteine or cysteine agent in each test substance was 500 mg/kg BW) were given to each experimental group, and the intragastric capacity was 20 mL/kg BW.

[1] = tested on: mouse peritoneal macrophages; test: Phagocytosis of chicken erythrocytes by mouse peritoneal macrophages; details: x ± s, n = 10
Excerpt: as §1, §2, §3

alcoholic liver damage [2] = test: Liver protection function experiment: MDA, reduced GSH and TG in liver homogenates
Excerpt: In the experiment, the auxiliary protection effect of the composition of the present disclosure on alcoholic liver damage was researched by detecting three indicators of liver malondialdehyde (MDA) content, reduced glutathione (GSH) and triglyceride (TG) and histopathologic examination (wherein the lower the MDA and TG contents were, the higher the GSH content was, the better the liver protection effect was). If the three indicators of the liver MDA, the reduced GSH and the TG were positive, or any two of the three indicators of the liver MDA, the reduced GSH and the TG were positive and the histopathological examination result was positive, the composition could be determined to have the auxiliary protection effect on alcoholic liver damage.
Test animals were as follows: male SPF-grade Kunming mice aged 5 to 6 weeks, with body weights of 18-22 g, available from Hubei Provincial Laboratory Animal Public Service Center, Hubei, China [certification No.: SCXK (E) 2020-0018].
The experimental method was as follows: 117 mice were randomly divided into 9 groups, namely a blank control group, a model control group and experimental groups 1-7 (the formula of the test samples was referred to the formula of the experimental groups 1-7), with 13 mice in each group.
Distilled water was given to the blank control group and the model control group, corresponding test substances (the dose of acetylcysteine or cysteine agent in each test substance was 500 mg/kg BW) were given to each experimental group according to the formula, and the intragastric capacity was 20 mL/kg BW. On day 30 of the experiment, the mice of the model control group and each experimental group were intragastrically administered with 14 mL/kg BW of 50% ethanol once, and distilled water with equal volume was given to the blank control group, and then the mice were fasted for 16 hours. The mice were sacrificed by cervical dislocation after weighing.
0.5 g of liver was taken and added with normal saline to prepare a liver homogenate, and then the MDA, reduced GSH and TG were detected. The detection method and the calculation method for the MDA and reduced GSH were described according to the instruction of a kit from NanJing JianCheng Bioengineering Institute, and the TG was detected by using the Beckman Coulter AU680 Chemistry Analyzer.

alcoholic liver damage [3] = test: Liver protection function experiment: liver histopathology score (lipid droplets); details: alcoholic liver damage mice; score 0-4 points per field; x ± s, 13 mice
Procedure: Distilled water was given to the blank control group and the model control group, corresponding test substances (the dose of acetylcysteine or cysteine agent in each test substance was 500 mg/kg BW) were given to each experimental group according to the formula, and the intragastric capacity was 20 mL/kg BW. On day 30 of the experiment, the mice of the model control group and each experimental group were intragastrically administered with 14 mL/kg BW of 50% ethanol once, and distilled water with equal volume was given to the blank control group, and then the mice were fasted for 16 hours. The mice were sacrificed by cervical dislocation after weighing. […]
The areas of the fields of view occupied by various lesions in each field of view were respectively recorded, and the total lesion scores of the observed fields of view were accumulated. […]

immune system of mice = test: Immunity enhancement function, overall determination; details: any two of four aspects positive
aged mice = test: Oxidation resistance function experiment in aged mice; details: x ± s, n = 13
Excerpt: In the experiment, the oxidation resistance effect of the composition was researched by detecting four indicators of MDA, protein carbonyl, antioxidant enzyme activity (GSH-PX or SOD) and reduced GSH content. If three of the four indicators were positive, the composition could be determined to have the oxidation resistance effect.
Test animals were as follows: male SPF-grade Kunming mice aged over 10 months, with body weights of 40-60 g, available from Hubei Provincial Laboratory Animal Public Service Center, Hubei, China [certification No.: SCXK (E) 2020-0018].
The experimental method was as follows: 104 mice were randomly divided into 8 groups, namely, a negative control group and experimental groups 1-7 (i.e., the formula of the test samples adopted the formula of the above experimental groups 1-7), with 13 mice in each group.
Distilled water was given to the blank control group, corresponding test substances (the dose of acetylcysteine or cysteine agent in each test substance was 500 mg/kg BW) were given to each experimental group, and the intragastric capacity was 20 mL/kg BW. After 30 days of continuous intragastric administration, blood was sampled from the inner canthus of each group of animals, a hemolysate was prepared, and the MDA content and the glutathione peroxidase (GSH-PX) activity were detected; the animals were sacrificed and the livers were taken as homogenates, 10% liver homogenates were prepared for reduced GSH and protein carbonyl determination, and 1% liver homogenates were prepared for superoxide dismutase (SOD) activity determination. Each detection kit was available from NanJing JianCheng Bioengineering Institute.

[4] = alcoholic liver damage mice, 500 mg/kg BW acetylcysteine or cysteine intragastric, 30 days, x ± s, 13 mice
[5] = 10% liver homogenates of aged mice, 30 days

## CC(=O)N[C@@H](CS)C(=O)O [Experimental group 1, N-acetylcysteine]
Humoral immune function
  Number of hemolytic plaques (N)/number of whole splenocytes: 161.71 ± 11.52^c
[1]
  Phagocytic rate, phagocytosis of chicken erythrocytes: 33.88 ± 2.48^b %
Alcoholic liver damage [2]; Technical Specification for Inspection and Evaluation of Health Food (2003 edition)
  Auxiliary protection effect on alcoholic liver damage (determination): had an auxiliary protection effect on alcoholic liver damage
Alcoholic liver damage [2]; [4]
  MDA in liver homogenates: 0.98 ± 0.28^bc nmol/mgprot
  Reduced GSH in liver homogenates: 34.55 ± 9.48^bc mg/gprot
  TG in liver homogenates: 1.52 ± 0.64^bc mmol/L
Alcoholic liver damage [3]
  Liver histopathology score (fatty degeneration of hepatocytes): 1.46 ± 1.05^bc
Immune system of mice
  Immunity enhancement effect (determination): had the immunity enhancement effect
Aged mice; 1% liver homogenates of aged mice, 30 days
  SOD: 338.4 ± 44.9^bc U/mgprot
Aged mice; 2% hemolysates of aged mice, 500 mg/kg BW intragastric 30 days
  MDA: 17.88 ± 2.55^bc nmol/ml
Aged mice; [5]
  GSH: 30.05 ± 6.08^a mg/gprot
  Protein carbonyl: 1.33 ± 0.35^ab nmol/mgprot
Aged mice; hemolysate of aged mice, 30 days
  GSH-PX: 585.2 ± 24.2^a U/ml
